The source of these data is patent publication US9290468B2, “Benzoheterocyclic compounds and use thereof” (SHANGHAI KECHOW PHARMA, INC., priority 2012, dated 2016).

Molecules are shown by their SMILES.

The subject of one assay is HT29 cells. Nature of the assay: Cell growth inhibition assay (MTT), HT29 cells. In kind it is cell-based. As to conditions: Homo sapiens, HT-29, 72 h.
The subject of the next assay is A375 cells. Description: Cell growth inhibition assay (MTT), A375 cells. The assay is classed as cell-based. The following applies: Homo sapiens, A-375, 72 h.
Assay [1] has as its system HT29 human colon cancer cells xenograft. Nature of the assay: In vivo anti-tumor efficacy in HT29 tumor xenograft model. Further details: species or system BALB/c nude mice. As to conditions: 20 mg/kg, oral gavage once daily, after 16 days of treatment, HT29 xenograft in nude mice.
Method: Female BALB/c nude mice of 5-6 week old were used for all the in vivo efficacy studies. Mice were injected with HT29 human colon cancer cells at 5×10^6 cells per 100 μL SFM into right flank. Tumor volumes were monitored by caliper measurement using the formula: tumor volume (mm^3)=(w^2×l)/2, where w=width and c=length in mm of the tumor. When the tumor volumes reached 150˜300 mm^3, mice were randomized to treatment groups (5˜10 mice per group) to receive compounds (20 mg/kg doses) or vehicle by oral gavage once daily for 16 days. The tumor volumes and body weight were measured every 2-3 days for data analysis. Tumor growth inhibition (TGI) and body weight changes were calculated compared to the vehicle treated groups.
A further assay has as its system COLO 205 tumor xenograft. Description: In vivo anti-tumor efficacy in COLO205 tumor xenograft model. The following applies: 20 mg/kg QD by gavage x 18 days.
Another assay relates to TNF-α. Nature of the assay: Inhibition of TNF-α expression, LPS-stimulated spleen cells, ELISA. As to conditions: Mus musculus, 24 h, read-out: Inhibition of TNF-α expression. A general note: In an ELISA, binding on a coated surface is turned into a signal by an enzyme label.
The test system of a further assay is Interleukin-4 (IL-4). Nature of the assay: Inhibition of Interleukin-4 (IL-4), GFP+ of CD4+ spleen cells by flow cytometry. As to conditions: Mus musculus, 48 h, read-out: IL-4 inhibition. (Flow cytometry measures light scatter and fluorescence of single cells or particles in a stream.)

Method for A375 cells: (§1) When the HT29 cells reach their exponential phase of growth, 4×10^3 cells/well were plated into 96-well plates, the edge of plates were filled with sterility PBS, at the same time, filled three holds only with medium as blank group. • 2. The plates were cultured in a humidified 5% CO2 incubator at 37° C. for 24 h, and allowed to proliferate for reaching their exponential phase of growth. • 3. Samples were dissolved in DMSO (dimethyl sulfoxide), the concentration of Samples is 10 mmol/L, 1 mmol/L, 100 μmol/L, 10 μmol/L, 1 μmol/L, 0.1 μmol/L, and further diluted with cell culture medium. The final does concentration were 10 μmol/L, 1 μmol/L, 100 nmol/L, 10 nmol/L, 1 nmol/L, 0.1 nmol/L, 0 nmol/L (the control group). The final DMSO concentration used was 1‰ of total volume of medium in all treatments, including the control group. • Blank: medium • Control: the same dose of DMSO with experiment. Group, the DMSO was diluted with cell perfect culture medium. • Experiment: the cells were treated with the concentration of 10 μmol/L, 1 μmol/L, 100 nmol/L, 10 nmol/L, 1 nmol/L, 0.1 nmol/L. • 4. The plates were cultured in a humidified 5% CO2 incubator at 37° C. for 72 h. 20 μL of 3-(4,5-dimethylthiazol-2-yl)-2,5-diphenyltetrazolium bromide (MTT) reagent (5 mg/mL) in phosphate buffered serum (PBS) was added to each well. • 5. The plates were cultured in a humidified 5% CO2 incubator at 37° C. for 4 h. Subsequently, the solution was aspirated and 150 uL dimethyl sulfoxide was added to release the formed formazan crystals from the living cells mitochondria into the solution. • 6. After moderated shaking for 3 min, absorbance was measured at 490 nm using microplate reader. Methods 2 (A375) • 1. When the A375 cells reach their exponential phase of growth, 5×10^3 cells/well were plated into 96-well plates, the edge of plates were filled with sterility PBS, at the same time, filled three holds only with medium as blank group. • 2. The plates were cultured in a humidified 5% CO2 incubator at 37° C. for 24 h. Allowed to proliferate for reaching their exponential phase of growth. • 3. Samples were dissolved in DMSO (Dimethyl Sulfoxide), the concentration of Samples is 10 mmol/L, 1 mmol/L, 100 μmol/L, 10 μmol/L, 1 μmol/L, 0.1 μmol/L, and further diluted with cell culture medium. The final does concentration were 10 μmol/L, 1 μmol/L, 100 nmol/L, 10 nmol/L, 1 nmol/L, 0.1 nmol/L, 0 nmol/L (the control group). The final DMSO concentration used was 1‰ of total volume of medium in all treatments, including the control group. • Blank: medium • Control: the same dose of DMSO with experiment group, the DMSO was diluted with cell perfect culture medium • Experiment: the cells were treated with the concentration of 10 μmol/L, 1 μmol/L, 100 nmol/L, 10 nmol/L, 1 nmol/L, 0.1 nmol/L • 4. The plates were cultured in a humidified 5% CO2 incubator at 37° C. for 72 h. 20 μL of 3-(4,5-dimethylthiazol-2-yl)-2,5-diphenyltetrazolium bromide (MTT) reagent (5 mg/mL) in phosphate buffered serum (PBS) was added to each well. • 5. The plates were cultured in a humidified 5% CO2 incubator at 37° C. for 4 h. Subsequently, the solution was aspirated and 150 uL dimethyl sulfoxide was added to release the formed formazan crystals from the living cells mitochondria into the solution. • 6. After moderated shaking for 3 min, absorbance was measured at 490 nm using microplate reader.
Method for HT29 cells: as §1
Method for Interleukin-4 (IL-4): Take spleens of BALB/c gene reported mice, culture in RPMI1640 medium (HyClone). • 2. Spleen will be ground into single cell suspension, add red blood cell lysis buffer (sigma) to suspension, for cracking the red blood cells. • 3. […] Dissolved compounds with DMSO and diluted with RPMI1640 medium containing 10% serum, diluted to a final concentration of 200 nM. • 5. […] After mixing, cells were added to 96 well plates, every hole is 100 μL. […] Each compound and control is three-hole wells, cultured at 37° C. for 48 h. • 6. After 48 h, the plates removed from the incubator and each well was collected in the flow tube (BD). • 7. Added cells to ice pre-cooling of PBS (phosphate buffer solution) solution to wash, and in 100 μL of PBS, join the fluorescent antibody CD4 0.5 μL, put in ice 15 min avoid light. • 8. After dyeing wash antibodies with the ice pre-cooling PBS solution. And prepare for flow cytometric detection. • 9. Using flow cytometry (BD FACS calibur) select the CD4+ cell populations, and detect GFP+ cells accounted for the percentage of CD4+ cells, to determine the impact of compounds on IL-4. • 10.
(§2) Control was DMSO and its concentration was same as the final concentration of test compounds.
Method for TNF-α: Take spleens of BALB/c gene reported mice, cultured in RPMI1640 medium (HyClone). Spleen was ground into single cell suspension, added red blood cell lysis buffer (sigma) to suspension, for cracking the red blood cells • 2. […] Dissolved compounds with DMSO and diluted with RPMI1640 medium containing 10% serum, diluted to a final concentration of 200 nM. • 4. Cells were added to 96 well plates, every hole was 100 μL. […] Each compound and control is three-hole wells. • 5. Cultured at 37° C. for 24 h. • 6. […] Using ELISA (enzyme-linked immunosorbent assay) technique for the determination of the amount of TNF-α in the 24 hours.
as §2

Take `O=C(NOCCO)c1cc2ocnc2c(F)c1Nc1ccc(Br)cc1Cl` [Compound 3, 5-((4-bromo-2-chlorophenyl)amino)-4-fluoro-N-(2-hydroxyethoxy)benzo[d]oxazole-6-carboxamide]: the results for the IC50 with HT29 cells and in the assay on A375 cells were 51.8 nM and 61.3 nM, respectively. In addition, in assay [1], the “Tumor growth inhibition (TGI)” value came to 32.3%. Besides, the “Tumor growth inhibition vs vehicle control group” value in the assay with COLO 205 tumor xenograft came to 47.11%. Also, the inhibition – broadly, the change of the read-out against control, counted positive when it falls – at 0.1 µM with TNF-α was at most 40%; in the assay on Interleukin-4 (IL-4), at most 50%.
